Assay results reported in ChEMBL document CHEMBL1201862, “PubChem BioAssay data set” (2004).
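Compound exposure: 48 hours, 5 concentrations, 96-well plates. GI50 marks 50% less growth.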 The source made the active and inactive calls. No stated cut-off is given here; in the data, active = GI50 up to about 1.1 µM and inactive = higher.

Columns and labels:
Test in all cases: NCI anticancer screen, dose series, 48 h
KM-20L2 = test system: KM-20L2
DMS-273 = test system: DMS-273
DMS-114 = test system: DMS-114
HOP-18 = test system: HOP-18
M19-MEL = test system: M19-MEL
LXFL 529 = test system: LXFL 529
RXF 631 = test system: RXF 631

Measured: GI50

COC(=O)C(CC(=O)Nc1ccc(Cl)c(Cl)c1)C(=O)C(=O)Nc1ccc(Cl)c(Cl)c1 (stereo unspecified)
inactive: KM-20L2 > 100 µM | DMS-273 > 100 µM | DMS-114 > 100 µM | HOP-18 50.7 µM | M19-MEL > 100 µM | LXFL 529 > 100 µM | RXF 631 > 100 µM

COC(=O)CCC(NC(=S)N/N=C(\C)c1ccco1)C(=O)OC (stereo unspecified)
inactive: KM-20L2 > 100 µM | DMS-273 > 100 µM | DMS-114 > 100 µM | HOP-18 > 100 µM | M19-MEL > 100 µM | LXFL 529 > 100 µM | RXF 631 > 100 µM

CCCCN(CCCC)CC(C(=O)Nc1ccc([N+](=O)[O-])cc1[N+](=O)[O-])/C(C)=N\NC(=O)C[N+](C)(C)C (stereo unspecified)
inactive: KM-20L2 > 100 µM | DMS-273 15.9 µM | DMS-114 31.6 µM | HOP-18 78.9 µM | M19-MEL > 100 µM | LXFL 529 74 µM | RXF 631 69.2 µM
